We go through 16 molecules from US7026314B2, “Therapeutic chromone compounds” (AstraZeneca AB, priority 2001, dated 2006).

In data set [1] the test system is guinea pigs. The experiment in a line: learned helplessness test in guinea pigs. The data set is classed as in vivo. Conditions: guinea pig. The source says: The utility of the compounds for example to treat depression may be shown via a learned helplessness test in guinea pigs, which is used extensively as correlative to antidepressant activity in humans. The learned helplessness test may be carried out as follows: Seventy male Hartley guinea pigs, each weighing about 350–425 gm are fed ad lib, and are housed under a 12-hour light/dark cycle. The procedure consists of two phases: The induction phase and the avoidance training phase. In the induction phase, subjects are placed into standard shuttle cages (20 L×16 W×21 centimeters H) which are fitted with a grid floor. Electrical stimulation (1.25 mA, 10 sec duration) is delivered to the floor of the cage every 90-sec during 1 hour daily sessions. Subjects have no opportunity to escape or to avoid shocks. Induction is conducted for 2 consecutive days.
In avoidance training, testing is also conducted in the shuttle cages, except that the subjects are not returned to the same chamber in which induction had occurred. Additionally, all cages are fitted with a partition with an arch in the center of the cage, through which animals can pass between the left and right halves of the cage. The procedure employed is a standard shuttle avoidance procedure in which a compound, conditioned stimulus (a 10-sec presentation of a tone and turning on of a lamp on the side of the cage that the guinea pig was occupying) serves to indicate presentation of electrical current to the floor of the cage. Shock is presented for a 5 sec period, 5 sec after initiation of the conditioned stimulus. Entry into the opposite side of the shuttle cage via the arched partition prior to shock onset results in the end of the trial (avoidance response). If shock is delivered, entry into the opposite side of the cage results in termination of the shock and CS (escape). Reversal of learned helplessness in the induction subjects correlates to antidepressant activity of the test compound.
Avoidance training, 45-min in duration, is conducted on 2 consecutive days, beginning 48 hr after the final induction session. Seventy subjects are assigned to 1 of 6 groups of 11–12 animals. The groups are as follows:
Groups 2–6 are given induction and avoidance training sessions. Injections are administered immediately following induction sessions and 1 hour prior to avoidance training sessions. A second injection is administered 7–8 hours following the first injection, for a total of 9 injections administered over 5 days. No injections are administered following the final avoidance training session.
Compounds of the present invention may be administered in a volume of 1 mL/kg bwt. Imipramine is dissolved in DI water. The compounds are dissolved in DI water, to which was added a few drops of lactic acid (pH 5.5). […]

The target in data set [2] is 5-HT1B and 5HT1D receptors. Conditions: saturation studies, guinea pig cortex membranes; read-out: Kd value of [3H]GR125743; cited from earlier work.
The target of data set [3] is T1, 5-HT1B receptors (Homo sapiens, UniProt P28222).
T1 construct: expressed in transfected cells; host or cells: CHO (stably transfected), frozen membrane preparations
The experiment in a line: 5-HT1b binding assay, competition with [3H]-GR125743 on CHO cell membranes. As to conditions: CHO membranes expressing 5-HT1B and 5-HT1D receptors. From the text: Other assays that may be used to measure for example affinity of compounds of the present invention for 5HT1B and 5HT1D receptors are described in J. Med. Chem 41:1218–1235, 1228 (1998) and J. Med. Chem 42:4981–5001, (1999) and incorporated by reference herein. These assays may be used with some modifications: Frozen membrane preparations of a stably transfected chinese hamster ovary (CHO) cell line expressing 5-HT1B receptors and 5-HT1D receptors are thawed rapidly, briefly vortexed, and diluted in assay buffer (AB) containing 50 mM Tris-HCl, 4 mM MgCl2, 4mM CaCl2, 1 mM EDTA, and adjusted to pH 7.4 with NaOH. Final protein concentrations are −0.185 mg/ml for 5-HT1B, and 0.4 mg/ml for 5-HT1D membranes. Test compounds are evaluated in competition assays using [^3H]-GR125743 (Amersham). The ligand concentration in both assays was 0.27 nM. […] The 5-HT1B and 5-HT1D assays are performed simultaneously on one 96-well assay plate, one drug/compound per plate. Ten serial dilutions (1 uM to 4 pM, final concentration) of compound are prepared in DMSO from 10 mM stock solutions. Incubation mixtures are prepared in quadruplicate in 96-deep well assay plates (Matrix 1 ml). […] The plates are then counted on a Packard TopCount to determine CPM's per well. Ki values are determined for each test compound utilizing the graphic and analytical software package, GraphPad Prism. […]

T1 sequence (P28222 whole entry): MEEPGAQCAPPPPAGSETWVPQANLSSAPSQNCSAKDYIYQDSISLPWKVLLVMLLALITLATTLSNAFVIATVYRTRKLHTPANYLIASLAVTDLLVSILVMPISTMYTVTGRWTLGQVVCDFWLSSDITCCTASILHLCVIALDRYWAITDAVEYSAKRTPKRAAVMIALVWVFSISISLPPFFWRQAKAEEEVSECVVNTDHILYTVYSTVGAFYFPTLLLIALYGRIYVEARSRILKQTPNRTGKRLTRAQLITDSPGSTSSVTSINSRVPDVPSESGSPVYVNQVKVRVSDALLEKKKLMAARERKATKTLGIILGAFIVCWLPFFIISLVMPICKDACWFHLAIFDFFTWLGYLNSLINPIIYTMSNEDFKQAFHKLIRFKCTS

`CN1CCN(c2cccc3c2OC(C(=O)Nc2ccc(N4CCOCC4)cc2)CC3)CC1` (racemic) [Example 75, 8-(4-Methyl-piperazin-1-yl)-chroman-2-carboxylic acid(4-morpholin-4-yl-phenyl)-amide]: the melting point fell in the range of 215 to 216 °C. Same read-out and setting: under `CN1CCN(c2cccc3c2OC(C(=O)Nc2ccc(N4CCOCC4)cc2)CC3=O)CC1` (racemic) [Example 78, racemic-8-(4-methyl-piperazin-1-yl)-4-oxo-chroman-2-carboxylicacid (4-morpholin-4-yl-phenyl)-amide] stands 215 to 216 °C.

In the case of `CN1CCN(c2cccc3c2OC(C(=O)Nc2ccc(N4CCOCC4)cc2)CC3=O)CC1` (single isomer, unassigned) [Example 79, 8-(4-Methyl-piperazin-1-yl)-4-oxo-chroman-2-carboxylic acid (4-morpholin-4-yl-phenyl)-amide(fasterrunning isomer)], the melting point is 216 °C (dec.). The same measure, in the same setting: to `CN1CCN(c2cccc3c2OC(C(=O)Nc2ccc(N4CCOCC4)cc2)CC3=O)CC1` (single isomer, unassigned) [Example 80, 8-(4-Methyl-piperazin-1-yl)-4-oxo-chroman-2-carboxylic acid (4-morpholin-4-yl-phenyl)-amide(slowerrunning isomer).] belongs 215 °C (dec.); to `CN1CCN(c2cccc3c2OC(C(=O)Nc2ccc(N4CCOCC4)cc2)CC3)CC1` (single isomer, unassigned; (+)) [Example 76, (+)-8-(4-Methyl-piperazin-1-yl)-chroman-2-carboxylic acid (4-morpholin-4-yl-phenyl)-amide], 206 to 207 °C; to `CN1CCN(c2cccc3c2OC(C(=O)Nc2ccc(N4CCOCC4)cc2)CC3)CC1` (single isomer, unassigned; (-)) [Example 77, (−)-8-(4-Methyl-piperazin-1-yl)-chroman-2-carboxylic acid (4-morpholin-4-yl-phenyl)-amide], 205.5 to 207 °C. With `CN1CCN(c2cccc3c(=O)cc(C(=O)Nc4ccc(N5CCOCC5)cc4)oc23)CC1` [Example 1, 8-(4-methyl-1-piperazinyl)-N-[4-(4-morpholinyl)phenyl]-4-oxo-4H-chromene-2-carboxamide], the melting point is 217 to 218 °C (dec.). The same measure, in the same setting: to `CN1CCN(c2cccc3c(=O)cc(-c4nc5ccc(N6CCOCC6)cc5o4)oc23)CC1` [Example 21, 8-(4-Methyl-piperazin-1-yl)-2-(6-morpholin-4-yl-benzooxazol-2-yl)-chromen-4-one] belongs 158.1 to 158.8 °C; to `CN1CCN(c2cccc3c(=O)cc(C(=O)Nc4ccc(N5CCOCC5)cc4O)oc23)CC1` [Example 22, 8-(4-Methyl-piperazin-1-yl)-4-oxo-4H-chromene-2-carboxylic acid (2-hydroxy-4-morpholin-4-yl-phenyl)-amide], 248.4 to 249.6 °C. `COc1cc(N2CCN(C)CC2)c2oc(C(=O)Nc3ccc(N4CCOCC4)cc3)cc(=O)c2c1` [Example 31, 6-Methoxy-8-(4-methyl-piperazin-1-yl)-4-oxo-4H-chromene-2-carboxylic acid (4-morpholin-4-yl-phenyl)-amide] displayed a melting point of 234 to 236 °C. In addition, the “activity in the learned helplessness assay for antidepressant/antianxiety activity” value in data set [1] is “demonstrate activity”. Regarding `CCC(=O)N1CCN(c2ccc(NC(=O)c3cc(=O)c4cc(OC)cc(N5CCN(C)CC5)c4o3)cc2)CC1` [Example 44, 6-Methoxy-8-(4-methyl-piperazin-1-yl)-4-oxo-4H-chromene-2-carboxylic acid [4-(4-propionyl-piperazin-1-yl)-phenyl]-amide], in data set [1], the “activity in the learned helplessness assay for antidepressant/antianxiety activity” value was “demonstrate activity”. Regarding `COc1cc(N2CCN(C)CC2)c2oc(C(=O)Nc3ccc(N4CCN(C(=O)CCO)CC4)cc3)cc(=O)c2c1` [Example 68, 6-Methoxy-8-(4-methyl-piperazin-1-yl)-4-oxo-4H-chromene-2-carboxylic acid {4-[4-(3-hydroxy-propanoyl)-piperazin-1-yl]-phenyl}-amide], the melting point was 195 to 197 °C. With `CCS(=O)(=O)N1CCN(c2ccc(NC(=O)c3cc(=O)c4cc(F)cc(N5CCN(C)CC5)c4o3)cc2)CC1` [Example 71, 6-Fluoro-8-(4-methyl-piperazin-1-yl)-4-oxo-4H-chromene-2-carboxylic acid [4-(4-ethanesulfonyl-piperazin-1-yl)-phenyl]-amide], the melting point was in the range of 233 to 234 °C. Moreover, the “activity in the learned helplessness assay for antidepressant/antianxiety activity” value in data set [1] was “demonstrate activity”.

Take `CCC(=O)N1CCN(c2ccc(NC(=O)c3cc(=O)c4cc(F)cc(N5CCN(C)CC5)c4o3)cc2)CC1` [Example 72, 6-Fluoro-8-(4-methyl-piperazin-1-yl)-4-oxo-4H-chromene-2-carboxylic acid [4-(4-propionyl-piperazin-1-yl)-phenyl]-amide]: in data set [1], the “activity in the learned helplessness assay for antidepressant/antianxiety activity” value is “demonstrate activity”. `CN1CCN(c2cc(F)cc3c(=O)cc(C(=O)Nc4ccc(N5CCN(C(=O)CCO)CC5)cc4)oc23)CC1` [Example 73, 6-Fluoro-8-(4-methyl-piperazin-1-yl)-4-oxo-4H-chromene-2-carboxylic acid {4-[4-(3-hydroxy-propanoyl)-piperazin-1-yl]-phenyl}-amide] gave a melting point of 195 to 199 °C. On to `COc1ccc(NC(=O)c2ccc(-c3ccncc3)c(C)c2)cc1N1CCN(C)CC1` [[^3H]-GR125743], for which the Kd in data set [2] is 0.046 ± 0.004 nM; in data set [3], 0.15 to 0.25 nM.
